Like-named read-outs stand apart in the source and are kept apart here. Residues, ends and D or L forms follow the SMILES beside them. *: point of attachment. Biotin = O=C1N[C@H]2[C@H](CS[C@H]2CCCCC(=O)*)N1
How the values were obtained:
HEK293/sortilin cells [1] = assay: Lysosomal sorting and degradation of NA650 (microscopy, blotted lysates, leupeptin); type: cell-based; conditions: NA650 100 nM
Description: Cellular uptake of target NA650 was analyzed with fluorescence microscopy. For this assay, coverslips in 4 well plates were coated with poly-L lysine prior to seeding of HEK293/sortilin cells (25K cells/coverslip) in culture media (as described in Example 3)) and incubated overnight in cell incubator (37° C., humidified, 5% CO2). The culture media was replaced with assay media (as described in Example 3) containing NA650 (Invitrogen) (500 nM) (Thermo Fischer), a compound according to SEQ ID NO.: 147 (2 μM) and AF38469 (100 μM, MedChemExpress). The cells were incubated in a cell incubator for 4 hours before washing in dPBS (Bionordika) followed by fixation with dPBS+4% PFA (Sigma Aldrich) for 15 minutes. […] The fluorescent signal was analyzed using a laser scanning confocal microscope (LSM-800). […]
Culture medium was replaced with assay medium (DMEM (Lonza), 10% fetal bovine serum (Sigma Aldrich), 1% penicillin-streptomycin (Sigma Aldrich), 1% GlutaMAX (Gibco)) with or without NA650 (Invitrogen) (100 nM) (Thermo Fischer), peptidic bifunctional compound (300 nM) and leupeptin (80 μM) (Sigma Aldrich). […] Proteins were blotted onto a nitrocellulose membrane (Thermo Fisher), and the DyLight650 signal was detected using an iBright 1500 (Thermo Fisher). […]

[2] = system: HEK293 cells expressing full length sortilin receptor; assay: Cellular uptake of AlexaFluor488-anti-DNP antibody; type: cell-based; conditions: Table 7; AlexaFluor488-anti-DNP antibody (100 nM), 3 h, DNP warhead compounds
Excerpt: In this example, the small molecule degraders consist of a sortilin binder linked to warhead DNP to target anti-DNP antibodies (BF001 to BF016)
Cellular uptake of AlexaFluor488-anti-DNP antibody (Thermo Fisher) was investigated in HEK293 cells expressing full length sortilin receptor in a methodology analogous to example 3.

[3] = system: untransfected HEK239 cells; assay: Cellular uptake of target in untransfected HEK293 cells (Example 22); type: cell-based; conditions: HEK293 cells without sortilin, 3 h, 2 nM to 2 μM, corresponding targets
Description: Cellular uptake of target was investigated in untransfected HEK239 cells and HEK293 cells expressing sortilin receptor in a methodology analogous to example 3.

[4] = target: T1, soluble ectodomain of sortilin-6his (Homo sapiens, UniProt Q99523, V650M); assay: MST binding to soluble ectodomain of sortilin-6his
T1 construct: the soluble ectodomain of sortilin-6his is measured by microscale thermophoresis (MST)
T1 sequence (Q99523 with tags, fused parts or gaps V650M): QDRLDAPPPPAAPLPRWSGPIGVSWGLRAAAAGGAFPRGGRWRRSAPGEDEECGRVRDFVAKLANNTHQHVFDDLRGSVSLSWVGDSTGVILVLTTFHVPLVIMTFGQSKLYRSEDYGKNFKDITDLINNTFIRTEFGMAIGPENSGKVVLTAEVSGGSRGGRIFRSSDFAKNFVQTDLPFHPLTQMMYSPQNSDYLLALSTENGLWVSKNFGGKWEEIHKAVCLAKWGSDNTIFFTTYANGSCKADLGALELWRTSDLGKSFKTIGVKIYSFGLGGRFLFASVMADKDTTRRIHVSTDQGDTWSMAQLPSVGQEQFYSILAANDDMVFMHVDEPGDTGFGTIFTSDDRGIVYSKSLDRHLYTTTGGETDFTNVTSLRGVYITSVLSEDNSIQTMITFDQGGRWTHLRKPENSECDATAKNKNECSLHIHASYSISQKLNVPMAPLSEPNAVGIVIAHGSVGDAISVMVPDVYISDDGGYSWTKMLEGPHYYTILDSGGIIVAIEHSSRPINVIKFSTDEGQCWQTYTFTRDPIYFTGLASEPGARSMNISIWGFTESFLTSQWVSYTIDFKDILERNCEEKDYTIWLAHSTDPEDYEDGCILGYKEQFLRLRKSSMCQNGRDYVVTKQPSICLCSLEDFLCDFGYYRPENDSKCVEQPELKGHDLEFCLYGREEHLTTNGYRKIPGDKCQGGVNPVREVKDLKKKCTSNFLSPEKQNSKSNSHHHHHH

[5] = system: HEK293 cells expressing full length sortilin receptor; assay: Cellular uptake of NA650 in HEK293/sortilin cells; type: cell-based
Summary of the method: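 HEK293 cells stably expressing full-length sortilin, seeded overnight, were exposed for 3 h at 37° C. in DMEM/10% FBS to NA650 (100 nM) with peptidic bifunctional compounds (9.8 nM to 10 μM). After dPBS washes, cell-associated DyLight650 fluorescence was read on a plate reader.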

[6] = target: T2, Streptavidin-d2 and Sortilin-6His (UniProt P22629+Q99523, V650M); assay: TR-FRET ternary complex formation streptavidin / small molecule bifunctional compound / sortilin; type: binding; conditions: Table 5; 5 μM-0.6 pM, […] incubation
T2 construct: ternary complex formation composed of streptavidin, bifunctional compound and sortilin-6his

TNFa-6His = TNFa-6His (Homo sapiens, UniProt P01375); assay: MST binding to TNFa-6his; conditions: Table 8, NTA labeled TNFa-6His (100 nM), read-out: KD (score), Kd of TNFalpha binding
Chain of TNFa-6His (P01375 77-233 limits assumed): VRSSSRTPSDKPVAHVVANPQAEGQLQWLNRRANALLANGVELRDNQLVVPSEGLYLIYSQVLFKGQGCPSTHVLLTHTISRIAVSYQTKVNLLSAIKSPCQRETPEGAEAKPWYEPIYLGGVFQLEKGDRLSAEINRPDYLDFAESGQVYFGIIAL
Excerpt: MST was measure analogously to example 1 using TNFa-6his.

HEK293/sortilin cells [7] = assay: Depletion of NA650 from cell culture supernatant; type: cell-based; conditions: for reduction in NA650 signal in cell culture supernatant: single addition, NA650 100 nM
Description: HEK293/sortilin cells were cultured in culture media containing DMEM (Lonza) further supplemented with 10% fetal bovine serum (Sigma), 1% GlutaMax Supplement (Gibco), penicillin-streptomycin (Thermo Fischer) and selection antibiotics 100 μg/mL Zeocin (Invitrogen). 35k cells/well were seeded in poly-L-lysine coated 96-well plates (Perkin Elmer) and allowed to incubate for 16-24 h in cell incubator (37° C., humidified, 5% CO2). Culture media were discarded, and the cells were washed with assay medium containing FluoroBright DMEM (Gibco) supplemented with 10% fetal bovine serum (Sigma) and 1% GlutaMax Supplement (Gibco). The media were discarded and replaced with assay media or assay medium containing 100 nM NA650 (Invitrogen). For wells evaluating the bifunctional compounds, the assay medium also contained concentrations ranging from 20 nM to 5 μM. After an incubation period of up to 72 h in the cell incubator the media were harvested and the presence of NA650 were evaluated by fluorescence intensity (FI) measurements of DyLight650 using a fluorescence plate reader (BMG Labtech Clariostar).
HEK293/sortilin cells (35k cells/96-well) were seeded in culture media (as described in Example 3) and incubated for 24 h in cell incubator. Culture media were discarded, and the cells were washed with assay medium containing FluoroBright DMEM (Gibco) and supplements as described in Example 3, before incubation in assay medium containing 100 nM NA650 and small molecule bifunctional compounds (20 nM to 5 μM). After an incubation period of up to 72 h, the media were harvested and the presence of NA650 were evaluated by FI measurements of DyLight650 using a fluorescence plate reader (BMG Labtech Clariostar).

[8] = target: streptavidin, bifunctional compound and sortilin-6his (UniProt P22629+Q99523, V650M); assay: TR-FRET ternary complex formation streptavidin / bifunctional peptide / sortilin-6his; conditions: Table 2; […] incubation, HTRF ratio 665/620 nm
Description: In these experiments, the compounds of interest were titrated over 24-point in a 384-well TTP LVDS plate (SPT Labtech) to a final buffer composition of 50 mM Bis-Tris Propane pH 8, 50 mM NaCl, 0.05% Tween20, with or without 10% DMSO using a Mosquito LV pipetting robot (SPT Labtech).
The reaction was allowed to incubate for 2.5 hours at room temperature, at which point the HTRF signal ratio at 665/620 nm was determined using a plate reader (ClarioStar, BMG Labtech). All reactions were run in triplicates and data was represented as HTRF ratio as a function of bifunctional compound concentration.

[9] = Table 4, small molecule bifunctional compounds, MST, read-out: KD score, binding to sortilin (Kd)

CC(C)(C)CCC(NC(=O)c1ccc(Oc2cccc(OCCOCCOCCOCCOCCOCCNC(=O)CCCC[C@@H]3SC[C@@H]4NC(=O)N[C@@H]43)c2)nc1)C(=O)O (stereo partly shown) [B025]
NA650 band in lysate (HEK293/sortilin cells [1]; 24 h incubation, compound 300 nM): visible in cells incubated with B025 alone

CC(C)(C)CC[C@H](NC(=O)c1ccc(Oc2cccc3c(C(=O)NCCCNC(=O)CCOCCOCCOCCNc4ccc([N+](=O)[O-])cc4[N+](=O)[O-])cccc23)nc1)C(=O)O [BF005, (2S)-2-[[6-[5-[3-[3-[2-[2-[2-(2,4-dinitroanilino)ethoxy]ethoxy]ethoxy]propanoylamino]propylcarbamoyl]-1-naphthyl]oxy]pyridine-3-carbonyllamino]-5,5-dimethyl-hexanoic acid]
AUC score, target internalization [2]: ++ (AUC > 10.000)
cell associated FI response to increasing degrader concentration [3]: No response
Kd [4]: 1 to 10 nM

CC(C)(C)CC[C@H](NC(=O)c1ccc(Oc2cccc(OCCOCCOCCOCCOCCOCCOCCOCCOCCNC(=O)CCCC[C@@H]3SC[C@@H]4NC(=O)N[C@@H]43)c2)nc1)C(=O)O [BF026, (2S)-2-[[6-[3-[2-[2-[2-[2-[2-[2-[2-[2-[2-[5-[(3aS,4S,6aR)-2-oxo-1,3,3a,4,6,6a-hexahydrothieno[3,4-d]imidazol-4-yl]pentanoylamino]ethoxy]ethoxy]ethoxy]ethoxy]ethoxy]ethoxy]ethoxy]ethoxy]ethoxy]phenoxy]pyridine-3-carbonyl]amino]-5,5-dimethyl-hexanoic acid]
AUC score, target internalization ([5]; Table 6, NA650 (100 nM), 3 h, biotin warhead compounds): ++ (AUC > 100)
AUC score, ternary complex formation [6]: ++ (AUC > 25.000)
Kd [4, 9]: 10 to 250 nM

Cc1nc2cc(F)c(-c3cnc(OCCCCCn4cc(COCCOCCOCCOCCNC(=O)c5ccc(Oc6cccc(OCC(=O)N[C@@H](CCC(C)(C)C)C(=O)O)c6)nc5)nn4)nc3)nc2c(N[C@H](C)c2cc(C#N)ccc2F)c1Cl [BF076]
Kd (TNFa-6His): < 2000 nM
Kd [4, 9]: 10 to 250 nM

Cc1nc2cc(F)c(-c3cnc(OCCOCCOCCOCCOCCOCCOCCNC(=O)c4ccc(Oc5cccc(OCC(=O)N[C@@H](CCC(C)(C)C)C(=O)O)c5)nc4)nc3)nc2c(N[C@H](C)c2cc(C#N)ccc2F)c1Cl [BF079]
Kd (TNFa-6His): < 2000 nM

Cc1cc(-c2ccc(OCC(=O)NCCOCCOCc3cn(CCCCCOc4ncc(-c5nc6c(N[C@@H](C)c7cc(C#N)ccc7F)c(Cl)c(C)nc6cc5F)cn4)nn3)cc2)cc(NC(=O)c2ccc(C(F)(F)F)cc2C(=O)O)n1 [BF080]
Kd (TNFa-6His): < 2000 nM
Kd [4, 9]: < 1 nM

C[C@@H]1CN(c2ncc(-c3ccc4c(n3)N(Cc3cccnc3C#N)C(C)(C)C4=O)cn2)CCN1C(=O)CNC(=O)CCCCCCCCCCn1cc(-c2cccc(Oc3ccc(C(=O)N[C@@H](CCC(C)(C)C)C(=O)O)cn3)c2)nn1 [BF081, (2S)-2-[[6-[3-[1-[11-[[2-[(2R)-4-[5-[1-[(2-cyano-3-pyridyl)methyl]-2,2-dimethyl-3-oxo-pyrrolo[2,3-b]pyridin-6-yl]pyrimidin-2-yl]-2-methyl-piperazin-1-yl]-2-oxo-ethyl]amino]-11-oxo-undecyl]triazol-4-yl]phenoxy]pyridine-3-carbonyl]amino]-5,5-dimethyl-hexanoic acid]
Kd (TNFa-6His): < 2000 nM
Kd [4, 9]: 1 to 10 nM

C[C@@H]1CN(c2ncc(-c3ccc4c(n3)N(Cc3cccnc3C#N)C(C)(C)C4=O)cn2)CCN1C(=O)CNC(=O)COCCOCCOCCOCCOc1cccc(Oc2ccc(C(=O)N[C@@H](CCC(C)(C)C)C(=O)O)cn2)c1 [BF082]
Kd (TNFa-6His): > 2000 nM
Kd [4, 9]: 1 to 10 nM

C[C@@H]1CN(c2ncc(-c3ccc4c(n3)N(Cc3cccnc3C#N)C(C)(C)C4=O)cn2)CCN1C(=O)CNC(=O)CCCCCOCCOCCNC(=O)c1cccc(Oc2ccc(C(=O)N[C@@H](CCC(C)(C)C)C(=O)O)cn2)c1 [BF0100]
Kd (TNFa-6His): < 2000 nM

CC(C)C[C@H](NC(=O)[C@H](CC(C)C)NC(=O)[C@H](CCC(N)=O)NC(=O)[C@H](CCCNC(=N)N)NC(=O)CNC(=O)CNC(=O)[C@H](CO)NC(=O)CNC(=O)CNC(=O)CNC(=O)CNC(=O)[C@H](CO)NC(=O)CNC(=O)CNC(=O)CNC(=O)CNC(=O)[C@H](CO)NC(=O)CNC(=O)CNC(=O)CCCC[C@@H]1SC[C@@H]2NC(=O)N[C@@H]21)C(=O)O [SEQ ID NO.: 147] (Biotin-GGSGGGGSGGGGSGGRQLL-OH)
reduction in NA650 signal in cell culture supernatant (HEK293/sortilin cells [7]; after 24 h): 16%
reduction in NA650 signal in cell culture supernatant (HEK293/sortilin cells [7]; after 48 h): 46%
reduction in NA650 signal in cell culture supernatant (HEK293/sortilin cells [7]; after 72 h): 61%
degrader concentration of highest uptake of target (HEK293/sortilin cells [7]; all timepoints (24, 48, 72 h)): 312 nM
subcellular localization of internalized NA650 (fluorescence microscopy) (HEK293/sortilin cells [1]; 2 h incubation, bifunctional molecule 300 nM, anti-LAMP1 staining): co-localizes with lysosomal marker
cell associated FI signal, response to concentration series (in words) ([5]; 3 h incubation, 9.8 nM to 10 μM, NA650 100 nM): bell-shaped response
Kd ([4]; Table 1, biotin-linker-peptide bifunctional compounds, MST, read-out: KD score, binding to sortilin (Kd)): 100 to 2000 nM
AUC score, TR-FRET measurements of ternary complex formation [8]: ++ (AUC > 5000)

Source: patent US20250345446A1 (Draupnir Bio ApS, priority 2022, published 2025)
